Among the data in patent US12667559B2, “Dihydronaphthyridinone compound, and preparation method therefor and medical use thereof” (GENFLEET THERAPEUTICS (SHANGHAI) INC., priority 2020, dated 2026) are IC50 values, retold here.

SMILES strings stand for the structures.

One test has as its system L929 cells. As to the kind of experiment: Inhibitory activity against TNF-α induced programmed necrosis of L929 cells (CellTiter-Glo). It is filed as cell-based. As to conditions: Mus musculus, 30 ng/ml murine TNF-α and 15 μM Z-VAD, 6 hours, survival rate. From the text: (§1) The U937 cell line used in the following test examples is from ATCC, with the number of CRL-1593.2, batch number of 63479999, and the culture medium of RPMI-1640+10% FBS. The L929 cell line used in the following test examples is from ATCC, with the number of CCL-1, batch number of 70001022, and the culture medium of MEM+10% FBS+1% PS. The reagents used, and suppliers and article numbers thereof are as follows: RPMI-1640, Gibco, 11875-093; FBS, Gibco, 10099-141; Trypsin-EDTA, Gibco, 25200-072; PS, Gibco, 15140-122; CellTiter Glo, Progema, G7573; DMSO, VWR AMRESCO, 0231-500ML; TNF-α protein (human, recombinant), Peprotech, 300-01A; Q-VD-Oph, MCE, HY-12305; V-shaped bottom plate, Corning, 3894; 384 well low flange white flat bottom polystyrene TC-treated microplates, Corning, 3570; RIPK1, Eurofins, 16-022; MOPS, BDH, 441644J; EDTA, Sigma, E5134; myelin basic protein, Sigma, M1891-25.00 MG; magnesium acetate, Merck, DU008026; ATP (non-radioactive label), Sigma, A-7699; ATP (radioactive label), Hartmann Analytic, DU008054; phosphoric acid, Metlab, DU003000; Z-VAD: Shanghai Twochem Co., Ltd., YA02401.
The compounds to be tested was dissolved in DMSO and prepared as a 10 mM stock solution, which was diluted 3.16 times with DMSO to form a series of concentration gradients, and then diluted 100 times with culture medium to make a working solution. 10,000 L929 cells/well were seeded on a 384-well white plate, and the corresponding concentration of compound was added to each well to mix with the cells uniformly. At the same time, 30 ng/ml murine TNF-α and 15 μM Z-VAD were added to induce programmed necrosis of the cells. The final concentration of DMSO was 0.2%, and the cells were placed in a 37° C., 5% CO2 incubator for further incubation for 6 hours. CellTiter-Glo reagent was used for detection. After the reaction was fully lysed, the chemiluminescence readings was detected by a microplate reader. The test results were calculated using the formula for survival rate: SR (%)=(RLU compound−RLU blank)/(RLU high control-RLU blank)×100%. The survival rate and the final concentration of the corresponding compound were plotted as a curve, and fitted using a four-parameter model to calculate the inhibitory IC50 of compounds on TNF-α-induced programmed cell necrosis.
In general terms: Cellular ATP, detected with luciferase, serves as a proxy for viable cell number.

The target of another test is T1, RIPK1 (Homo sapiens, UniProt Q13546).
T1 construct: purchased Eurofins 16-022
T1 sequence (Q13546 1-671): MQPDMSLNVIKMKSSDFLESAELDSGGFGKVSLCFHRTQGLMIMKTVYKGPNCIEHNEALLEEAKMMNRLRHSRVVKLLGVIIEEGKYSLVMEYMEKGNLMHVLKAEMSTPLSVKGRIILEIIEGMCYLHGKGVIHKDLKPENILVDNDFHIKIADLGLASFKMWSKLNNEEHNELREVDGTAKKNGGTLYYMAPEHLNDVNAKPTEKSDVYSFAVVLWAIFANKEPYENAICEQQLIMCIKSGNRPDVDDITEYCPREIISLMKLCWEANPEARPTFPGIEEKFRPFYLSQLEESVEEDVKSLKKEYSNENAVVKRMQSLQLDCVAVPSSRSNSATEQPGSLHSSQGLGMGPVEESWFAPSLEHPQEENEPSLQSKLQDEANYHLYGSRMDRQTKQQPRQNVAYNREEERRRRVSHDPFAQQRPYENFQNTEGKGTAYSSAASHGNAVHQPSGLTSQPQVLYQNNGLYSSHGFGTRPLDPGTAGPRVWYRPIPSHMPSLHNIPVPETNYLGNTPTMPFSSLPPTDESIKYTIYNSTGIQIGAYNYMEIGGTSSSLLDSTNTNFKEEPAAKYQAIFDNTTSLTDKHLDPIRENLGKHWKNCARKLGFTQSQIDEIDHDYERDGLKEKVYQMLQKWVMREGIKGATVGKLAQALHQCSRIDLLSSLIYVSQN
As to the kind of experiment: Inhibitory activity against RIPK1 enzyme (33P-ATP, MBP substrate). Type of test: biochemical. As to conditions: 36 nM RIPK1, 0.33 mg/ml MBP, 155 μM 33P-ATP, 2 hours, room temperature.
Source text: as §1
The compounds to be tested was dissolved in DMSO to prepare a 10 mM stock solution, which was diluted 3.16 times with DMSO into a series of concentration gradients, and then diluted 50 times with MOPS buffer solution (pH 7.0) to prepare a working solution, which were mixed well with 36 nM RIPK1 (final concentration), and 0.33 mg/ml substrate MBP. 10 mM magnesium ions and 155 μM phosphorous 33 isotope-labeled ATP were added to the reaction. The final concentration of DMSO was 2%. After 2 hours of reaction at room temperature, phosphoric acid was added to stop the reaction. The final reaction system was processed and then detected with a liquid scintillation counter.

In another test the test system is U937 cells. As to the kind of experiment: Inhibitory activity against TNF-α induced programmed cell necrosis (U937 cells, CellTiter-Glo). Type of test: cell-based, human. As to conditions: Homo sapiens, U-937, 48 h, U937 cells, human TNF-α and Q-VD-Oph induced necrosis, 48 hours, survival rate; read-out: U937 IC50.

What is called IC50 is the concentration that gives 50% inhibition. `C[C@H](c1ccc(F)cc1)n1cc(N2CCc3ncc(-c4ccn5nc(N)nc5c4)cc3C2=O)cn1` (single isomer, unassigned) [Z74]: the IC50 in the test with L929 cells amounted to 2.3 nM; on RIPK1, 193 nM; in the test on U937 cells, 3.8 nM.

Regarding `C[C@H](c1cc(F)ccc1-c1cnn(C)c1)N1CCc2ncc(-c3ccn4nc(N)nc4c3)cc2C1=O` (single isomer, unassigned) [Z85], the results for the IC50 with L929 cells, against RIPK1 and in the test on U937 cells were 13.4 nM, 34 nM and 4.3 nM, respectively.

As for `CC(=O)Nc1cn2nc(-c3cnc4c(c3)C(=O)N(Cc3cc(F)cc(F)c3OC3CCOCC3)CC4)ccc2n1` [Z2, N-(6-(6-(3,5-difluoro-2-((tetrahydro-2H-pyran-4-yl)oxy)benzyl)-5-oxo-5,6,7,8-tetrahydro-1,6-naphthyridin-3-yl)imidazo[1,2-b]pyridazin-2-yl)acetamide], the values for the IC50 with L929 cells, at RIPK1 and in the test on U937 cells were less than 2.8 nM, 37 nM and 0.103 nM, respectively.

`CC(=O)Nc1cn2nc(-c3cnc4c(c3)C(=O)N(Cc3ccccc3OC(F)(F)F)CC4)ccc2n1` [Z5, N-(6-(5-oxo-6-(2-(trifluoromethoxy)benzyl)-5,6,7,8-tetrahydro-1,6-naphthyridin-3-yl)imidazo[1,2-b]pyridazin-2-yl)acetamide]: the IC50 in the test with L929 cells is 8 nM; with U937 cells, 46.7 nM.

On to `O=C(Nc1cn2nc(-c3cnc4c(c3)C(=O)N(Cc3ccccc3OC(F)(F)F)CC4)ccc2n1)C1CC1` [Z10, N-(6-(5-oxo-6-(2-(trifluoromethoxy)benzyl)-5,6,7,8-tetrahydro-1,6-naphthyridin-3-yl)imidazo[1,2-b]pyridazin-2-yl)cyclopropanecarboxamide], for which the 50% inhibitory concentration (IC50) in the test with L929 cells was determined as 2.4 nM; against RIPK1, 56 nM; with U937 cells it was 5.9 nM.

Consider `Nc1nc2cc(-c3cnc4c(c3)C(=O)N(Cc3cc(F)ccc3OC3CCCC3)CC4)ccn2n1` [Z45, 3-(2-amino-[1,2,4]triazolo[1,5-a]pyridyl-7-yl)-6-(2-(cyclopentyloxy)-5-fluorobenzyl)-7,8-dihydro-1,6-naphthyridin-5(6H)-one], for which the results for the IC50 with L929 cells and in the test on U937 cells were 1.3 nM and 0.2 nM, respectively.

As to `Nc1nc2cc(-c3cnc4c(c3)C(=O)N(Cc3cccnc3OC3CCCC3)CC4)ccn2n1` [Z47, 3-(2-amino-[1,2,4]triazole[1,5-a]pyridyl-7-yl)-6-((2-(cyclopentyloxy)pyridyl-3-yl)methyl)-7,8-dihydro-1,6-naphthyridin-5(6H)-one], the results for the IC50 with L929 cells and in the test with U937 cells were 5.1 nM and 3 nM, respectively.

Turning to `Cn1cc(-c2ccc(F)cc2CN2CCc3ncc(-c4ccn5nc(N)nc5c4)cc3C2=O)cn1` [Z51, 3-(2-amino-[1,2,4]triazolo[1,5-a]pyridyl-7-yl)-6-(5-fluoro-2-(1-methyl-1H-pyrazol-4-yl)benzyl)-7,8-dihydro-1,6-naphthyridin-5(6H)-one], the IC50 against RIPK1 was 72 nM; with U937 cells, 24 nM.

Consider `Nc1nc2cc(-c3cnc4c(c3)C(=O)N(Cc3cc(F)cc(F)c3OC3CC3)CC4)ccn2n1` [Z69], for which the IC50 in the test on L929 cells was 3.7 nM; against RIPK1, 33 nM; in the test with U937 cells, 1.4 nM.

Regarding `Cc1c(-c2ccc(F)cc2CN2CCc3ncc(-c4ccn5nc(N)nc5c4)cc3C2=O)cnn1C` [Z82], the results for the IC50 at RIPK1 and in the test with U937 cells were 50 nM and 23.4 nM, respectively.
